# Results taken from patent publication US20100069854A1, “Elastomeric Devices Containing Chlorhexidine/Fatty Acid Salts Made From Fatty Acids of 12 to 18 Carbons” (priority 2008, published 2010).
# Entries after “also recorded” stand apart in the source; their conditions may differ.
# Assays:
# [1] = test system: Pseudomonas aeruginosa ATCC 27853; experiment: Basic broth adherence assay on coated polyurethane tubes; assay type: cell-based
# Description: The antimicrobial effectiveness of the coated samples was subjected to different durations of DI water extraction by basic broth adherence assay. For each chlorhexidine/fatty acid salt tested, 3 samples of coated tubing were prepared and assayed. To prepare the inoculum, a culture of Pseudomonas aeruginosa ATCC 27853 was used to challenge the coated polyurethane tubes and controls. The negative control used was a length of uncoated polyurethane tube. The challenge microorganism suspension was prepared as follows: approximately three colonies were removed from a secondary working culture plated on Trypticase Soy Agar (TSA) (BD-Falcon) with 5% sheep's blood and added to 10 ml of Trypticase Soy Broth (TSB). The vial was vortexed for approximately 30 seconds and incubated for 4 hours at 37° C. at 100 rpm. Following incubation, the vial was removed and vortexed. The optical density of the organism suspension was read. The inoculum was then diluted in TSB to a concentration of 5×10^4 colony forming units per milliliter (CFU/mL). This concentration was confirmed by the Miles and Misra drop count method.
# The basic broth adherence assay was performed in a 96 well micro titer plate. To each well of the micro titer plate containing either a test article or a control, 900 μl of TSB was added. To this, 100 μl of the adjusted inoculum was added (Note: Due to the 1/10 dilution per well, the starting inoculum concentration of each organism was […] for Pseudomonas aeruginosa). The micro titer plates were then sealed via parafilm® around the edges and wrapped in foil to avoid evaporation of liquid and light contact with the samples. The plates were then placed inside a shaker incubator set at 37° C. and 100 rpm for 24 hours. Incubation at 37° C. then continued until the elapse of 7 days, 14 days, and 21 days, respectively, for each of the 3 samples prepared for each chlorhexidine/fatty acid salt.
# At the completion of the respective incubation periods, the samples were rinsed, sonicated, the sonicate was plated and adherence was evaluated. More particularly, following incubation, all samples and controls were dip-rinsed twice in phosphate buffered saline (PBS) to remove the surrounding media. After rinsing, test articles were sonicated in micro titer plate wells containing 1 mL of Dey-Engley (DE) neutralizing broth (Difco). The sonication liquid was then serially diluted, and plated onto the surface of DE neutralizing agar. Plates were incubated at 37° C. for 24 to 48 hours and colonies were counted. Recovery counts were recorded as CFU/mL.
# [2] = test system: Candida albicans ATCC 10231; experiment: Zone of inhibition assay with impregnated polyurethane foam discs; assay type: cell-based
# Description: To evaluate antimicrobial properties of polyurethane foam samples infused with the various chlorhexidine/fatty acid salts, a zone of inhibition assay was performed. In this assay, 1.4% (w/v) of chlorhexidine acetate, chlorhexidine caprate, chlorhexidine laurate, chlorhexidine myristate, chlorhexidine palmitate and chlorhexidine stearate solutions in methanol were prepared. A supply of 8 mm discs were punched out of a sheet of polyurethane foam (Rynel medical grade polyurethane foam) with biopsy punches (Miltex Kai). Several discs were placed in each of six 50 ml centrifuge tubes. Approximately 5 ml of each of the different methanol/chlorhexidine/fatty acid salt solutions was added to each respective tube. The discs were centrifuged for 5 minutes to remove any air bubbles and soaked for 1 hr to infuse the foam discs with the respective chlorhexidine/fatty acid salt. Infused discs were transferred to clean centrifuge tubes and vacuum dried at 25° C. for 24 hrs to remove any residual solvents. Initial concentrations of salts, impregnated into the punches, were determined by dissolving the impregnated foams and by high pressure liquid chromatography (HPLC) analysis using an Agilent Eclipse XDB-CN 3u 4.6×150 mm column with initial mobile phase=65% DI water/0.2% trifluoroacetic acid (TFA): 35% Acetonitrile/0.2% TFA. Chlorhexidine absorbance was read at 253 nm and concentration was calculated via a chlorhexidine calibration curve. […] To perform the zone of inhibition assay on the impregnated polyurethane foam discs, agar plates were prepared by mixing 11 g Mueller-Hinton cation-adjusted broth and 1.5 g agarose in 500 ml DI water. The agar was autoclaved for 15 minutes at 121° C., 15 psi. 10 ml of the still hot, liquid agar was pipetted onto petri dishes. The challenge organism, Candida albicans ATCC 10231, was cultivated in Trypticase soy broth, standard microbiological growth medium (TSB). Sterile cotton swabs were dipped into the undiluted culture and the plated agar was fully inoculated with swabs. The 8 mm polyurethane foam discs were transferred daily to a freshly inoculated agar for 9 days. The zone of inhibition (ZOI) was measured using calipers. Actual ZOI was measured by subtracting the diameter of the foam (when wet) from the zone measured and dividing by 2. The results are presented in Table 6, with a graphical representation of the ZOI in FIG. 2;
# [3] = Rate of release of chlorhexidine/fatty acid salts from coated polyurethane tubes into DI water; assay type: physicochemical; conditions: for Cumulative release of the chlorhexidine/fatty acid salts from the coated polyurethane tubes: 1 cm coated tube in DI water, 37° C.
# Description: A solution of each respective chlorhexidine/fatty acid salt was prepared and used to infuse a sample of elastomeric material. To perform the test, individual samples, 8 cm pieces of polyurethane tube containing a colorant, were surface dip coated in respective solutions of the chlorhexidine/fatty acid salts. The solutions were prepared as follows: 8.6 g of Tecoflex (Noveon, Cleveland, Ohio) was dissolved in 174 g of Tetrahydrofuran and methanol. 5.88 g of chlorhexidine acetate, chlorhexidine laurate, chlorhexidine myristate, chlorhexidine palmitate and chlorhexidine stearate were individually dissolved into the polymer-solvent mixture. The samples were immersed into the solvent-polymer-salt mixture and then dried at room temperature, evaporating the solvent. A polymeric coating was produced on the surface of the tubes. The amounts of chlorhexidine/fatty acid salt adhered per cm of the tube was measured (Table 2) by exhaustively extracting the salt and measuring UV absorbance at 253 nm relative to controls: For each of the samples, the rate of release of chlorhexidine/fatty acid salts into an aqueous solution was determined. To perform the rate of release test, 1 cm from each of the coated polyurethane tubes, were submerged in DeIonized (DI) water and incubated at 37° C. for a period of 28 days to determine the rate of release of the salts from the respective 1 cm samples of coated polyurethane tubing. The water was collected and replaced with fresh water after approximately 2 hours. The water was again collected and replaced with fresh water after the first day and every seven days thereafter. The amount of chlorhexidine/fatty acid salt in the collected water was measured with an Agilent 8453 UV-Vis Diode Array Detector with a manual setup using a cuvette w/path length of 1 cm. Chlorhexidine absorbance was read at 253 nm and concentration was calculated via a calibration curve developed using standards of 1, 5, 10, 20, 30, 35, and 40 μg/mL chlorhexidine acetate in DI Water. The percentage of chlorhexidine/fatty acid salt released from the sample into an aqueous media (percent release) was calculated according to the following equation: Percent release=(cumulative release at that time period/initial content)*100.
# [4] = Day 1, daily transfer to fresh agar
# [5] = Day 2, daily transfer to fresh agar
# [6] = Day 3, daily transfer to fresh agar
# [7] = Day 4, daily transfer to fresh agar
# [8] = Day 7, daily transfer to fresh agar
# [9] = Day 8, daily transfer to fresh agar
# [10] = Day 9, daily transfer to fresh agar
compound,measurement,setting,value
"CCCCCCCCCCCCCC(=O)O.CCCCCCCCCCCCCC(=O)O.N=C(NCCCCCCNC(=N)NC(=N)Nc1ccc(Cl)cc1)NC(=N)Nc1ccc(Cl)cc1 [Chlorhexidine Myristate, chlorhexidine dimyristate]",Log10 reduction of adhered Pseudomonas aeruginosa onto the surface of coated polyurethane tubes,[1]; 7 days,7
same,Log10 reduction of adhered Pseudomonas aeruginosa onto the surface of coated polyurethane tubes,[1]; 21 days,7
same,ZOI produced by impregnated polyurethane foam punches against Candida albicans,[2]; [4],27 mm
same,ZOI produced by impregnated polyurethane foam punches against Candida albicans,[2]; [5],34 mm
same,ZOI produced by impregnated polyurethane foam punches against Candida albicans,[2]; [6],32 mm
same,ZOI produced by impregnated polyurethane foam punches against Candida albicans,[2]; [7],18 mm
same,ZOI produced by impregnated polyurethane foam punches against Candida albicans,[2]; [8],16 mm
same,ZOI produced by impregnated polyurethane foam punches against Candida albicans,[2]; [9],16 mm
same,ZOI produced by impregnated polyurethane foam punches against Candida albicans,[2]; [10],18 mm
same,Cumulative release of the chlorhexidine/fatty acid salts from the coated polyurethane tubes,[3]; Day 1,40 g
same,Cumulative release of the chlorhexidine/fatty acid salts from the coated polyurethane tubes,[3]; Day 7,98 g
same,Cumulative release of the chlorhexidine/fatty acid salts from the coated polyurethane tubes,[3]; Day 14,133 g
same,Cumulative release of the chlorhexidine/fatty acid salts from the coated polyurethane tubes,[3]; Day 21,147 g
same,Cumulative release of the chlorhexidine/fatty acid salts from the coated polyurethane tubes,[3]; Day 28,151 g
same,Release from the coated sample over the test (in words),"[3]; FIG. 1, 28 days in DI water",continually released at an appreciable rate throughout the duration of the test
same,Amount released from the coated sample over the 7 day period,[3]; from 21 to 28 days,4 µg
"CCCCCCCCCCCCCCCCCC(=O)O.CCCCCCCCCCCCCCCCCC(=O)O.N=C(NCCCCCCNC(=N)NC(=N)Nc1ccc(Cl)cc1)NC(=N)Nc1ccc(Cl)cc1 [Chlorhexidine Stearate, chlorhexidine distearate]",Log10 reduction of adhered Pseudomonas aeruginosa onto the surface of coated polyurethane tubes,[1]; 7 days,0
same,Log10 reduction of adhered Pseudomonas aeruginosa onto the surface of coated polyurethane tubes,[1]; 14 days,0
same,Log10 reduction of adhered Pseudomonas aeruginosa onto the surface of coated polyurethane tubes,[1]; 21 days,0
same,Inhibition of adherence / antimicrobial effect against Pseudomonas aeruginosa (in words),[1]; coated polyurethane tubes compared to uncoated control,did not provide an antimicrobial effect beyond the first day; also recorded: did not inhibit adherence of the challenge organism
same,ZOI produced by impregnated polyurethane foam punches against Candida albicans,[2]; [4],11 mm
same,ZOI produced by impregnated polyurethane foam punches against Candida albicans,[2]; [5],17 mm
same,ZOI produced by impregnated polyurethane foam punches against Candida albicans,[2]; [6],16 mm
same,ZOI produced by impregnated polyurethane foam punches against Candida albicans,[2]; [7],13 mm
same,ZOI produced by impregnated polyurethane foam punches against Candida albicans,[2]; [8],14 mm
same,ZOI produced by impregnated polyurethane foam punches against Candida albicans,[2]; [9],8 mm
same,ZOI produced by impregnated polyurethane foam punches against Candida albicans,[2]; [10],8 mm
same,Zone of inhibition compared with the other salts (in words),"[2]; impregnated polyurethane foam, after several daily transfers / over the 9 day assay",zones of inhibition that were smaller
same,Cumulative release of the chlorhexidine/fatty acid salts from the coated polyurethane tubes,[3]; Day 1,30 g
same,Cumulative release of the chlorhexidine/fatty acid salts from the coated polyurethane tubes,[3]; Day 7,76 g
same,Cumulative release of the chlorhexidine/fatty acid salts from the coated polyurethane tubes,[3]; Day 14,87 g
same,Cumulative release of the chlorhexidine/fatty acid salts from the coated polyurethane tubes,[3]; Day 21,95 g
same,Cumulative release of the chlorhexidine/fatty acid salts from the coated polyurethane tubes,[3]; Day 28,99 g
same,Percent release of the initial salt concentration from the coated sample,[3]; after 28 days (FIG. 1),approximately 40%
